Measured values as given in the NIST ThermoML archive (doi:10.1016/j.tca.2016.09.005).
± gives the expanded uncertainty stated by the source.

Experiment: xn = mol fraction of the nth substance listed
Settings: 100 kPa, Liquid; for speed of sound: Frequency=3 MHz, Sing-around technique in a fixed-path interferometer; for mass density: Vibrating tube method

OCCCO [propan-1,3-diol] + CCO
Settings | mass density, 283.15 K [kg/m3] | mass density, 293.15 K [kg/m3] | mass density, 303.15 K [kg/m3] | mass density, 313.15 K [kg/m3] | speed of sound, 283.15 K [m/s] | speed of sound, 293.15 K [m/s] | speed of sound, 303.15 K [m/s] | speed of sound, 313.15 K [m/s]
x2 = 0 | 1058.85 ± 1.3 | 1052.61 ± 1.2 | 1046.36 ± 1.2 | 1040.07 ± 1.2 | 1659.5 ± 2.6 | 1636.3 ± 2.6 | 1613.6 ± 2.6 | 1591.1 ± 2.6
x2 = 0.05 | 1049.7 ± 1.2 | 1043.39 ± 1.2 | 1037.07 ± 1.2 | 1030.71 ± 1.2 | 1642.4 ± 2.6 | 1618.9 ± 2.6 | 1595.7 ± 2.6 | 1572.9 ± 2.6
x2 = 0.1 | 1040.25 ± 1.2 | 1033.87 ± 1.2 | 1027.48 ± 1.2 | 1021.03 ± 1.2 | 1623.9 ± 2.6 | 1600.1 ± 2.6 | 1576.5 ± 2.6 | 1553.2 ± 2.6
x2 = 0.15 | 1030.34 ± 1.1 | 1023.87 ± 1.1 | 1017.39 ± 1.1 | 1010.85 ± 1.1 | 1605.2 ± 2.5 | 1580.9 ± 2.5 | 1556.8 ± 2.5 | 1533.1 ± 2.5
x2 = 0.2 | 1020.03 ± 1.1 | 1013.44 ± 1.1 | 1006.78 ± 1.1 | 999.86 ± 1.1 | 1585.7 ± 2.5 | 1560.9 ± 2.5 | 1536.5 ± 2.5 | 1511 ± 2.5
x2 = 0.2499 | 1009.63 ± 1.1 | 1003 ± 1.1 | 996.35 ± 1.1 | 989.64 ± 1.1 | 1565.3 ± 2.5 | 1540.2 ± 2.4 | 1515.3 ± 2.4 | 1490.6 ± 2.4
x2 = 0.3004 | 998.62 ± 1.1 | 991.91 ± 1.1 | 985.17 ± 1.1 | 978.36 ± 1.1 | 1544.3 ± 2.4 | 1518.7 ± 2.4 | 1493.3 ± 2.4 | 1468.1 ± 2.4
x2 = 0.3502 | 987.34 ± 1 | 980.54 ± 1 | 973.69 ± 1 | 966.78 ± 1 | 1523 ± 2.4 | 1496.8 ± 2.4 | 1470.9 ± 2.4 | 1445.3 ± 2.4
x2 = 0.4 | 975.76 ± 1 | 968.84 ± 1 | 961.9 ± 1 | 954.88 ± 1 | 1501 ± 2.3 | 1474.2 ± 2.3 | 1447.8 ± 2.3 | 1421.7 ± 2.3
x2 = 0.4501 | 963.57 ± 1 | 956.56 ± 1 | 949.5 ± 1 | 942.36 ± 1 | 1478.2 ± 2.3 | 1450.8 ± 2.3 | 1423.8 ± 2.3 | 1397.1 ± 2.3
x2 = 0.5004 | 950.95 ± 1 | 943.82 ± 1 | 936.66 ± 1 | 929.42 ± 1 | 1454.4 ± 2.3 | 1426.5 ± 2.3 | 1399 ± 2.3 | 1371.7 ± 2.3
x2 = 0.5501 | 938.39 ± 0.99 | 931.16 ± 0.99 | 923.88 ± 0.99 | 916.52 ± 0.99 | 1431.2 ± 2.2 | 1402.8 ± 2.2 | 1374.6 ± 2.2 | 1346.8 ± 2.2
x2 = 0.6001 | 924.91 ± 0.98 | 917.56 ± 0.98 | 910.16 ± 0.98 | 902.67 ± 0.98 | 1406.4 ± 2.2 | 1377.6 ± 2.2 | 1348.8 ± 2.2 | 1320.4 ± 2.2
x2 = 0.65 | 911.17 ± 0.97 | 903.69 ± 0.97 | 896.16 ± 0.97 | 888.54 ± 0.97 | 1382.1 ± 2.2 | 1352.5 ± 2.2 | 1323.2 ± 2.2 | 1294.2 ± 2.2
x2 = 0.7 | 896.69 ± 0.96 | 889.09 ± 0.96 | 881.42 ± 0.96 | 873.66 ± 0.96 | 1356.6 ± 2.1 | 1326.3 ± 2.1 | 1296.4 ± 2.1 | 1266.8 ± 2.1
x2 = 0.7503 | 881.71 ± 0.96 | 873.96 ± 0.96 | 866.15 ± 0.96 | 858.23 ± 0.96 | 1331.1 ± 2.1 | 1300.1 ± 2.1 | 1269.4 ± 2.1 | 1239.1 ± 2.1
x2 = 0.8001 | 866.31 ± 0.95 | 858.42 ± 0.95 | 850.47 ± 0.95 | 842.41 ± 0.95 | 1304.9 ± 2.1 | 1273.3 ± 2.1 | 1242 ± 2.1 | 1211.1 ± 2.1
x2 = 0.8502 | 850.07 ± 0.95 | 842.04 ± 0.95 | 833.92 ± 0.95 | 825.7 ± 0.95 | 1278.5 ± 2 | 1246.2 ± 2 | 1214.2 ± 2 | 1182.7 ± 2
x2 = 0.9 | 833.71 ± 0.95 | 825.51 ± 0.95 | 817.24 ± 0.95 | 808.85 ± 0.95 | 1252.1 ± 2 | 1219 ± 2 | 1186.3 ± 2 | 1154 ± 2
x2 = 0.95 | 816.56 ± 0.95 | 808.22 ± 0.95 | 799.79 ± 0.95 | 791.23 ± 0.95 | 1225.1 ± 2 | 1191.3 ± 2 | 1157.9 ± 2 | 1125 ± 2
